Experimental findings from patent publication US6867235B2, “Helianthrone derivatives as anti-cancer agents” (Yeda Research and Development Co. Ltd., priority 2000, dated 2005) are described below.

The subject of assay [1] is U251 human glioblastoma cells. It is filed as cell-based. The note with it: glioblastoma cells in culture, complete darkness. On the procedure:
Human HL-60 leukemic cells were grown in RPMI-1640 supplemented with 15% fetal calf serum, […] and 100 units/ml penicillin-streptomycin. Human erythroleukemia K-562 cells (derived from a chronic myeloid leukemia pateient) were grown in the same medium supplemented with 10% fetal calf serum. These cells and the human U251 glioblastoma, U87MG glioblastoma and LAN5 neuroblastoma cells used in the experiments are available from the ATCC. All cell lines were cultured in a humidified 5% CO2/95% air atmosphere at 37° C.
Cell viability was monitored by the MTT assay which measures reduction of 3-(4,5-dimethylthiazol-2-yl)-2,5-diphenyl tetrazolium bromide to formasan by mitochondria of viable cells as described in Mossman, T., J. Immunogen., 21, 235-248 (1983). The cells are incubated with MTT for four hours at 37° C. and analyzed in an ELISA reader at 560 nm. The optical density of formasan generated by untreated cell cultures (O.D. control) is defined as one MTT unit. The number of MTT units in culture samples undergoing treatments is calculated as the ratio (O.D.sample−O.D.blank)/O.D.control).
Three human malignant cell lines were evaluated to sensitivity to dimethyl TMH in vitro. […] The medium was aspirated, the adherent monolayer was washed with phosphate-buffered saline, and cell viability was monitored by the MTI assay. […]

The subject of assay [2] is DA-3HI induced breast adenocarcinoma tumors. In words: Survival after resection of DA-3HI breast adenocarcinoma tumors with hypericin. As to conditions: for survival rate: 5 days apart. It is filed as in vivo, BALB/c mice. As to the method:
The primary tumor size at which metastases occur in DA-3^HI-derived breast adenocarcinoma tumors was initially calibrated in BALB/c mice inoculated with 5×10^5 DA-3^HI tumor cells intradermally. […] If the resection was performed on tumors with larger diameters, the mice died of metastases. A diameter of approximately 5 mm appears to be the cutoff at which metastases begin to spread.
DA-3^HI tumors were induced in 12-week old female BALB/c mice as described above. When the tumors reached diameters of 8-10 mm the mice were divided into four groups. One group of 19 mice was left untreated and in the three other groups the tumors were surgically removed. One of the resected groups received two intraperitoneal (i.p.) injections with 200 μg hypericin (HY) each 5 days apart beginning two days prior to surgery (16 mice). Another resected group received five i.p. injections with 200 μg hypericin each, 5 days apart beginning two days prior to surgery (17 mice). One resected group was not treated with hypericin (16 mice). The mice were then followed for survival. […] However, administration of 2 i.p. injections of hypericin increased the survival rate to 35% and administration of 5 hypericin doses increased the survival rate to 60%.

Assay [3] deals with SQ2 squamous cell carcinoma tumors. In words: Survival after resection of SQ2 squamous cell carcinoma tumors with hypericin. It is filed as in vivo, BALB/c mice. The note with it: for mice alive beyond 240 days following tumor cell inoculation: resection. On the procedure:
In another set of experiments squamous cell carcinoma tumors were generated in BALB/c mice by inoculating 5×10^5 SQ2 cells per mouse. When the tumors reached a diameter of 1.0-1.2 cm in diameter they were removed by surgery (resected). One group of 5 mice also received three i.p injections of hypericin of 100 μg/mouse prior to surgery and two regimens of 50 μg/mouse post surgery at intervals of 5 days between each dosing. Another group of 8 mice received six hypericin i.p. injections of 100 μg/mouse prior to surgery and five regimens of 50 μg/mouse post surgery at intervals 5 days apart. One control group of 17 mice underwent surgery only without treatments with hypericin and another control group remained untreated (22 mice). Animal survival was then followed.

Assay [4] concerns DA-3HI metastatic lesions. Description: Morphology of metastatic lesions after resection of DA-3HI tumors. The assay is classed as in vivo, BALB/c mice. The note with it: 5 doses of 200 μg/mouse at 5 day intervals, two months after surgery. As to the method:
In an effort to understand how hypericin prevents the growth of metastases the experiment was repeated and the morphology of the metastatic lesions then followed. Primary DA-3^HI tumors were induced in BALB/c mice. Surgery was conducted on the tumors when diameters reached 8-10 mm. These mice (17 animals) were divided into two groups, one treated with 5 doses of hypericin 200 μg/mouse at 5 day intervals as previously described (9 animals) and another group served as untreated control (8 mice). The animals were grown for two more months. The mice were then sacrificed and the internal organs examined for metastatic lesions. […] This was evident only when hypericin injections were initiated very early prior to the resection of the primary tumor. These observations indicate that hypericin inhibits angiogenesis (growth of new vasculature). […] Since angiogenesis is primarily mediated by vascular endothelium growth factor (VEGF), hypericin may interfere with either the formation or secretion of VEGF from tumor cells or with its targeting of growth inducing receptors on vascular endothelial cells. […] Interference with the signal transduction pathway that culminates in the production of VEGF might be the mechanism for hypericin or helianthrone derivative-mediated inhibition of the VEGF effect that results in inhibition of metastatic lesion growth.

For assay [5], the system named is heparanase-induced angiogenesis. In words: Heparanase-induced angiogenesis in the anterior chamber of the rat eye. It is filed as in vivo, rats. As to conditions: four i.p. injections of 750 μg, 5 days after heparanase. As to the method: Four rats (250 g each) were given three intraperitoneal injections of hypericin (750 μg per dose in 5 ml water containing 3.5% ethanol) at four day intervals. The following day the animals were anesthetized with xylazine-ketamine and angiogenesis (formation of new blood vessels) was induced by inoculating 2 μl heparanase (30 μg/ml) into the frontal compartment of the eye in the cornea of one of the two eyes in each rat. A fourth intraperitoneal injections of 750 μg hypericin was applied the next day. Two positive control animals received only 2 μl heparanase (30 μg/ml) into the frontal compartment of the eye. Angiogenesis was then allowed to develop for 5 days at which time animals were anesthetized with xylazine-ketamine and examined and photographed under a binocular microscope for development of blood vessels in the anterior chamber of the eye.

Assay [6] concerns rat aorta rings, endothelial cell microvessels. Description: Rat aorta ring microvessel formation in fibrin gel. It is filed as cell-based. As to conditions: 0.1-10 μg/ml (0.2-20 μM). The text has this: Rat aorta is carved into rings which are embedded in fibrin gels and cultured in MCDB 131 medium. Endothelial cells that detach from the aorta rings generate branching microvessels according to a method previously described (Nicosia R. F. and Ottinetti A. Growth of microvessels in serum-free matrix culture of rat aorta. Laboratory Investigation 63: 115, 1990).

A further assay has as its system tumor neovascularization. Description: Tumor neovascularization in tumor-bearing mice. The note with it: mouse, in vivo. The text has this:
These hitherto unknown attributes were detected while studying the effects of hypericin and of helianthrone derivatives on breast adenocarcinoma tumors induced in mice with the DA-3^HI cell line and on murine anaplastic squamous carcinoma tumors induced with the SQ-2 cell line. Both are highly metastatic tumors and if surgically resected after having reached a diameter larger than 5 mm, the mice will go on to develop metastases in the lungs and liver. The metastases cause death of the animals within approximately two months following surgery.
By preventing development of new blood vessels to supply a growing metastasis, the rapidly growing metastatic focus is deprived of nutrients and oxygen for its rapidly multiplying cells and the lesion degenerates.

Consider `Cc1cc(O)c2c(=O)c3c(O)cc(O)c4c5c(O)cc(O)c6c(=O)c7c(O)cc(C)c8c1c2c(c34)c(c78)c65` [hypericin], for which, in assay [1], the “effect on the cultures at doses at which dimethyl-TMH kills cells” value is listed as “no effect”. For the same compound, the “inhibition of the primary tumor” value in assay [2] (DA-3HI breast adenocarcinoma tumors) and in assay [3] (SQ-2 anaplastic squamous carcinoma tumors) was “not inhibited” in each case. Moreover, the survival rate in assay [2] (day 89, resection plus 2 i.p. injections of 200 μg) is 35%; in assay [2] (day 89, resection plus 5 i.p. injections of 200 μg), 60%. For the same compound, the “mice alive beyond 240 days following tumor cell inoculation” value is 40% in assay [3] (six i.p. injections 100 μg/mouse prior to surgery, five of 50 μg/mouse post surgery) and 60% in assay [3] (three i.p. injections 100 μg/mouse prior to surgery, two of 50 μg/mouse post surgery). Further, the “protection rates due to hypericin administration” value in assay [3] (versus surgery only) is given as 20-40%. The “appearance of metastatic lesions in internal organs” value in assay [4] was “much smaller, somewhat more necrotic and devoid of such vasculature”. Further, in assay [5], the “blood vessels in the anterior chamber of the eye” value is listed as “absence of blood vessels”. Moreover, the “formation of organized microvessels” value in assay [6] is “inhibition of formation of the organized microvessels”. In addition, in the assay with tumor neovascularization, the neovascularization of tumors entry was “prevented neovascularization”.
In the case of `Cc1ccc2c(=O)c3c(O)cc(O)c4c5c(O)cc(O)c6c(=O)c7ccc(C)cc7c(c65)c(c2c1)c34` [dimethyl tetrahydroxyhelianthrone, 10,13-dimethyl-1,3,4,6-tetrahydroxyhelianthrone], in assay [6], the “formation of organized microvessels” value was “inhibition of formation of the organized microvessels”. Further, the neovascularization of tumors result in the assay with tumor neovascularization is “prevented neovascularization”.
